# According to the supplement of paper PMC10307832:
# Legend:
# Assay in all cases: relative viability (nuclei count vs DMSO), 5 days (fraction); higher = more cells survive
# Gemcitabine + Navitoclax = compound: Nc1ccn([C@@H]2O[C@H](CO)[C@@H](O)C2(F)F)c(=O)n1 [Gemcitabine] + CC1(C)CCC(c2ccc(Cl)cc2)=C(CN2CCN(c3ccc(C(=O)NS(=O)(=O)c4ccc(N[C@H](CCN5CCOCC5)CSc5ccccc5)c(S(=O)(=O)C(F)(F)F)c4)cc3)CC2)C1 [Navitoclax] (partner 0.5 µM)
# Method in brief: (§1)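 Relative viability equals treated-well nuclei counts divided by vehicle-well nuclei counts. Counts came from 4× images of lung cancer cell lines grown in 1536-well plates for 5 days after pin-tool dosing on the day after seeding. Dosing used one drug alone or a fixed anchor-drug dose plus five library-drug doses (not always all listed) in √10 steps, and values are medians of duplicate plates.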
# Gemcitabine + Vorinostat = compound: Nc1ccn([C@@H]2O[C@H](CO)[C@@H](O)C2(F)F)c(=O)n1 [Gemcitabine] + O=C(CCCCCCC(=O)Nc1ccccc1)NO [Vorinostat] (partner 1 µM)
# Method in brief: as §1
# Gemcitabine + Tozasertib = compound: Nc1ccn([C@@H]2O[C@H](CO)[C@@H](O)C2(F)F)c(=O)n1 [Gemcitabine] + Cc1cc(Nc2cc(N3CCN(C)CC3)nc(Sc3ccc(NC(=O)C4CC4)cc3)n2)n[nH]1 [Tozasertib] (partner 0.1 µM)
# Method in brief: as §1
# Gemcitabine + Crizotinib = compound: Nc1ccn([C@@H]2O[C@H](CO)[C@@H](O)C2(F)F)c(=O)n1 [Gemcitabine] + C[C@@H](Oc1cc(-c2cnn(C3CCNCC3)c2)cnc1N)c1c(Cl)ccc(F)c1Cl [Crizotinib] (partner 1 µM)
# Method in brief: as §1
Cell Line,relative viability (Gemcitabine + Navitoclax; first compound 0.001 µM),relative viability (Gemcitabine + Navitoclax; first compound 0.003162 µM),relative viability (Gemcitabine + Navitoclax; first compound 0.01 µM),relative viability (Gemcitabine + Navitoclax; first compound 0.03162 µM),relative viability (Gemcitabine + Navitoclax; first compound 0.1 µM),relative viability (Gemcitabine + Vorinostat; first compound 0.001 µM),relative viability (Gemcitabine + Vorinostat; first compound 0.003162 µM),relative viability (Gemcitabine + Vorinostat; first compound 0.01 µM),relative viability (Gemcitabine + Vorinostat; first compound 0.03162 µM),relative viability (Gemcitabine + Vorinostat; first compound 0.1 µM),relative viability (Gemcitabine + Tozasertib; first compound 0.001 µM),relative viability (Gemcitabine + Tozasertib; first compound 0.003162 µM),relative viability (Gemcitabine + Tozasertib; first compound 0.01 µM),relative viability (Gemcitabine + Tozasertib; first compound 0.03162 µM),relative viability (Gemcitabine + Tozasertib; first compound 0.1 µM),relative viability (Gemcitabine + Crizotinib; first compound 0.001 µM),relative viability (Gemcitabine + Crizotinib; first compound 0.003162 µM),relative viability (Gemcitabine + Crizotinib; first compound 0.01 µM),relative viability (Gemcitabine + Crizotinib; first compound 0.03162 µM),relative viability (Gemcitabine + Crizotinib; first compound 0.1 µM)
HCC-827,0.967,0.815,0.557,0.357,0.224,0.883,0.806,0.426,0.19,0.179,0.402,0.392,0.303,0.191,0.169,0.886,0.674,0.572,0.387,0.214
HCC-78,0.795,0.428,0.191,0.119,0.104,0.405,0.276,0.215,0.225,0.23,0.448,0.37,0.147,0.198,0.164,0.271,0.26,0.167,0.146,0.15
NCI-H2085,1.1,1.15,0.848,0.646,0.484,0.857,0.739,0.652,0.621,0.368,0.729,0.858,0.731,0.562,0.443,0.74,0.828,0.699,0.585,0.4
PC-14,0.986,0.813,0.619,0.035,0.0244,0.82,0.165,0.0458,0.0558,0.0381,0.579,0.275,0.078,0.0297,0.0356,0.903,0.569,0.308,0.0832,0.0612
NCI-H1648,–,–,–,–,–,0.435,0.388,0.461,0.288,0.209,0.593,–,0.407,0.251,0.198,–,–,–,–,–
A-427,0.918,0.907,0.719,0.189,0.124,0.826,0.857,0.671,0.321,0.284,0.189,0.19,0.135,0.13,0.121,0.984,0.764,0.503,0.124,0.106
H3255,0.558,0.404,0.135,0.121,0.106,0.834,0.848,0.289,0.296,0.251,0.604,0.497,0.407,0.258,0.209,0.97,0.439,0.63,0.167,0.176
HCC-44,0.97,0.993,0.893,0.173,0.154,1.1,1.13,1.04,0.651,0.418,1.05,0.918,0.774,0.194,0.162,0.825,0.756,0.614,0.201,0.154
NCI-H1734,0.843,0.562,0.195,0.106,0.0836,0.746,0.626,0.119,0.114,0.0915,0.243,0.264,0.125,0.104,0.105,0.8,0.48,0.246,0.106,0.104
NCI-H2228,1.13,0.407,0.203,0.0863,0.0652,0.429,0.374,0.226,0.0768,0.217,0.278,0.209,0.154,0.108,0.115,0.615,0.326,0.233,0.141,0.166
ABC-1,–,–,–,–,–,–,1.26,1.06,0.303,0.256,0.185,–,0.159,0.188,0.187,1.2,1.4,0.829,0.342,0.114
NCI-H661,–,–,–,–,–,0.766,0.725,0.598,0.303,0.234,0.367,0.366,0.338,0.263,0.219,1.09,0.983,0.856,0.333,0.285
NCI-H358,–,–,–,–,–,0.988,0.186,0.0888,0.113,0.0707,0.086,0.081,0.0836,0.081,0.0743,0.494,0.228,0.188,0.166,0.135
EBC-1,0.268,0.187,0.136,0.19,0.126,–,–,–,–,–,–,–,–,–,–,0.192,0.166,0.161,0.134,0.159
NCI-H650,–,–,–,–,–,0.38,0.25,0.15,0.121,0.111,0.676,0.384,0.193,0.143,0.15,0.578,0.322,0.176,0.177,0.167
NCI-H1792,0.828,0.581,0.133,0.0844,0.0803,–,–,–,–,–,–,–,–,–,–,1.05,0.897,0.222,0.0949,0.0981
A549,1.21,1.1,0.0375,0.0126,0.0108,–,–,–,–,–,–,–,–,–,–,0.858,0.377,0.229,0.0341,0.0206
NCI-H1703,0.73,0.178,0.141,0.118,0.102,–,–,–,–,–,–,–,–,–,–,0.588,0.208,0.11,0.125,0.0932
LCLC-103H,–,–,–,–,–,0.761,0.856,0.754,0.585,0.46,0.491,0.399,0.395,0.176,0.139,1.12,1.07,0.934,0.997,0.272
NCI-H1563,–,–,–,–,–,–,–,–,–,–,–,–,–,–,–,0.861,0.993,0.917,0.635,0.411
NCI-H1395,1.05,0.859,0.525,0.61,0.414,0.593,0.517,0.384,0.331,0.345,0.676,0.674,0.429,0.367,0.334,–,–,–,–,–
